pIC50: −log10 of the molar value.
Biological target: OGG1 (Homo sapiens (Human), UniProt O15527)
Assay: In vitro OGG1 activity assay
Type: biochemical
Conditions: 800 pM OGG1 enzyme, 2 nM human APEX1, 10 nM 8-oxoA:C substrate
Experimental: Method 1: In Vitro OGG1 Activity Assay OGG1 activity is assayed by measuring the increase in fluorescence from a duplex oligonucleotide containing an OGG1 substrate and a fluorophore in close proximity that are quenched by a quencher on the complementary strand. […] OGG1 activity releases the substrate base from DNA by cleaving the N-glycosidic bond between base and deoxyribose. The resulting apurinic site is cleaved by an excessive amount APEX1 activity which cause the duplex to melt, which in turn cause the fluorophore to become unquenched. Compounds to be tested are dissolved in DMSO and nano-dispensed directly into black 384-well plates, followed by transfer of enzyme and substrate solutions. […] The fluorescent signal is recorded in a plate reader equipped with suitable filters to register fluorescein fluorescence.

Chain of OGG1 (O15527 whole entry): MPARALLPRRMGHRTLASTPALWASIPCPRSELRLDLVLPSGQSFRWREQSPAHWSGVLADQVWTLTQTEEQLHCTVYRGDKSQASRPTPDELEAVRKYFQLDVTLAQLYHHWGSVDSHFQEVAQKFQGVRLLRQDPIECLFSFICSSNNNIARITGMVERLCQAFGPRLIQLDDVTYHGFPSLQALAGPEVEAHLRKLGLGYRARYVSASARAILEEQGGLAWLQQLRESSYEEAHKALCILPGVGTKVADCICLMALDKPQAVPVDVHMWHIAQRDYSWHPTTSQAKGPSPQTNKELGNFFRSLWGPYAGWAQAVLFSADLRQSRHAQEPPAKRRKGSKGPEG

In the case of `COc1ccc(NC(=O)N2CCC(n3c(=O)[nH]c4c(N5Cc6cn[nH]c6C5)cccc43)CC2)cc1Cl` [Example 108, N-(3-chloro-4-methoxyphenyl)-4-(2-oxo-4-{1H,4H,5H,6H-pyrrolo[3,4-c]pyrazol-5-yl}-2,3-dihydro-1H-1,3-benzodiazol-1-yl)piperidine-1-carboxamide], the pIC50 was 5.60.

`O=C(Nc1cnc(Cl)c(Cl)c1)N1CCC(n2c(=O)[nH]c3c(Br)cccc32)CC1` [Example 109, 4-(4-Bromo-2-oxo-2,3-dihydro-1H-1,3-benzodiazol-1-yl)-N-(5,6-dichloropyridin-3-yl)piperidine-1-carboxamide] showed a pIC50 of 5.19.

Work on `Cc1nc(NC(=O)N2CCC(n3c(=O)[nH]c4c(Br)cccc43)CC2)ccc1Cl` [Example 111, 4-(4-Bromo-2-oxo-2,3-dihydro-1H-1,3-benzodiazol-1-yl)-N-(5-chloro-6-methylpyridin-2-yl)piperidine-1-carboxamide] yielded a pIC50 of 5.24.

In the case of `CC1CC(n2c(=O)[nH]c3c(Br)cccc32)CCN1C(=O)Nc1ccc(Cl)c(Cl)c1` (stereo not shown) [Example 112, 4-(4-Bromo-2-oxo-2,3-dihydro-1H-benzo[d]imidazol-1-yl)-N-(3,4-dichlorophenyl)-2-methylpiperidine-1-carboxamide], the pIC50 was 5.31.

Compound `CC1CN(C(=O)Nc2ccc(Cl)c(Cl)c2)CCC1n1c(=O)[nH]c2c(Br)cccc21` (stereo not shown) [Example 113, 4-(4-Bromo-2-oxo-2,3-dihydro-1H-benzo[d]imidazol-1-yl)-N-(3,4-dichlorophenyl)-3-methylpiperidine-1-carboxamide] has a pIC50 of 5.49.

`COc1cc(NC(=O)N2CCC(n3c(=O)[nH]c4c(Cl)cccc43)CC2)ccc1C` [Example 114, 4-(4-Chloro-2-oxo-2,3-dihydro-1H-1,3-benzodiazol-1-yl)-N-(3-methoxy-4-methylphenyl)piperidine-1-carboxamide] showed a pIC50 of 6.16.

With `COc1cc(NC(=O)N2CCC(n3c(=O)[nH]c4c(C)cccc43)CC2)ccc1C` [Example 115, N-(3-methoxy-4-methylphenyl)-4-(4-methyl-2-oxo-2,3-dihydro-1H-1,3-benzodiazol-1-yl)piperidine-1-carboxamide] the pIC50 was 5.84.

`COc1cc(NC(=O)N2CCC(n3c(=O)[nH]c4c(OC)cccc43)CC2)ccc1C` [Example 116, 4-(4-Methoxy-2-oxo-2,3-dihydro-1H-1,3-benzodiazol-1-yl)-N-(3-methoxy-4-methylphenyl)piperidine-1-carboxamide] showed a pIC50 of 5.69.

`N#Cc1ccc(NC(=O)[C@H]2CC[C@@H](n3c(=O)[nH]c4c(Br)cccc43)CC2)cc1Cl` [Example 125, (Cis)-4-(4-bromo-2-oxo-2,3-dihydro-1H-1,3-benzodiazol-1-yl)-N-(3-chloro-4-cyanophenyl)cyclohexane-1-carboxamide] showed a pIC50 of 5.44.

In the case of `N#Cc1ccc(NC(=O)[C@H]2CC[C@@H](n3c(=O)[nH]c4c(Br)cccc43)CC2)cc1` [Example 132, (Cis)-4-(4-bromo-2-oxo-2,3-dihydro-1H-1,3-benzodiazol-1-yl)-N-(4-cyanophenyl)cyclohexane-1-carboxamide], the pIC50 was 5.17.

`O=c1[nH]c2c(Br)cccc2n1[C@H]1CC[C@@H](C(=O)Nc2ccc(C(F)(F)F)cc2)CC1` [Example 133, (Cis)-4-(4-bromo-2-oxo-2,3-dihydro-1H-1,3-benzodiazol-1-yl)-N-[4-(trifluoromethyl)phenyl]cyclohexane-1-carboxamide] gave a pIC50 of 6.06.

With `O=c1[nH]c2c(Br)cccc2n1[C@H]1CC[C@@H](C(=O)Nc2ccc(OC(F)(F)F)c(Cl)c2)CC1` [Example 134, (Cis)-4-(4-bromo-2-oxo-2,3-dihydro-1H-1,3-benzodiazol-1-yl)-N-[3-chloro-4-(trifluoromethoxy)phenyl]cyclohexane-1-carboxamide] the pIC50 was 5.56.

For `O=c1[nH]c2c(Br)cccc2n1[C@H]1CC[C@@H](C(=O)Nc2ccc(C(F)(F)F)c(F)c2)CC1` [Example 137, (Cis)-4-(4-bromo-2-oxo-2,3-dihydro-1H-1,3-benzodiazol-1-yl)-N-[3-fluoro-4-(trifluoromethyl)phenyl]cyclohexane-1-carboxamide], the pIC50 was 5.69.

For `O=c1[nH]c2c(Br)cccc2n1[C@H]1CC[C@@H](C(=O)Nc2cccc(Cl)c2)CC1` [Example 138, (Cis)-4-(4-bromo-2-oxo-2,3-dihydro-1H-1,3-benzodiazol-1-yl)-N-(3-chlorophenyl)cyclohexane-1-carboxamide], the pIC50 was 5.70.

Compound `O=c1[nH]c2c(Br)cccc2n1[C@H]1CC[C@@H](C(=O)Nc2cccc(C(F)(F)F)c2)CC1` [Example 141, (Cis)-4-(4-bromo-2-oxo-2,3-dihydro-1H-1,3-benzodiazol-1-yl)-N-[3-(trifluoromethyl)phenyl]cyclohexane-1-carboxamide] has a pIC50 of 5.26.

`Cc1cccc(NC(=O)[C@H]2CC[C@@H](n3c(=O)[nH]c4c(Br)cccc43)CC2)c1` [Example 143, (Cis)-4-(4-bromo-2-oxo-2,3-dihydro-1H-1,3-benzodiazol-1-yl)-N-(3-methylphenyl)cyclohexane-1-carboxamide] was tested, and the pIC50 was 5.92.

Work on `Cc1ccc(NC(=O)[C@H]2CC[C@@H](n3c(=O)[nH]c4c(Br)cccc43)CC2)cc1C(F)(F)F` [Example 144, (Cis)-4-(4-bromo-2-oxo-2,3-dihydro-1H-1,3-benzodiazol-1-yl)-N-[4-methyl-3-(trifluoromethyl)phenyl]cyclohexane-1-carboxamide] yielded a pIC50 of 6.01.

With `O=c1[nH]c2c(Br)cccc2n1[C@H]1CC[C@@H](C(=O)Nc2cccc3[nH]ccc23)CC1` [Example 145, (Cis)-4-(4-bromo-2-oxo-2,3-dihydro-1H-1,3-benzodiazol-1-yl)-N-(1H-indol-4-yl)cyclohexane-1-carboxamide] the pIC50 was 5.97.

In the case of `COc1cc(F)cc(NC(=O)[C@H]2CC[C@@H](n3c(=O)[nH]c4c(Br)cccc43)CC2)c1` [Example 155, (Cis)-4-(4-bromo-2-oxo-2,3-dihydro-1H-1,3-benzodiazol-1-yl)-N-(3-fluoro-5-methoxyphenyl)cyclohexane-1-carboxamide], the pIC50 was 5.74.

Work on `COc1ccc(NC(=O)[C@H]2CC[C@@H](n3c(=O)[nH]c4c(Br)cccc43)CC2)c(F)c1` [Example 156, (Cis)-4-(4-bromo-2-oxo-2,3-dihydro-1H-1,3-benzodiazol-1-yl)-N-(2-fluoro-4-methoxyphenyl)cyclohexane-1-carboxamide] yielded a pIC50 of 6.76.

In the case of `N#Cc1cc(NC(=O)[C@H]2CC[C@@H](n3c(=O)[nH]c4c(Br)cccc43)CC2)ccc1Cl` [Example 157, (Cis)-4-(4-bromo-2-oxo-2,3-dihydro-1H-1,3-benzodiazol-1-yl)-N-(4-chloro-3-cyanophenyl)cyclohexane-1-carboxamide], the pIC50 was 6.82.

In the case of `COc1cc(NC(=O)[C@H]2CC[C@@H](n3c(=O)[nH]c4c(Br)cccc43)CC2)cc(C(F)(F)F)c1` [Example 158, (Cis)-4-(4-bromo-2-oxo-2,3-dihydro-1H-1,3-benzodiazol-1-yl)-N-[3-methoxy-5-(trifluoromethyl)phenyl]cyclohexane-1-carboxamide], the pIC50 was 5.22.

`COc1cc(NC(=O)[C@H]2CC[C@@H](n3c(=O)[nH]c4c(Br)cccc43)CC2)ccc1C#N` [Example 159, (Cis)-4-(4-bromo-2-oxo-2,3-dihydro-1H-1,3-benzodiazol-1-yl)-N-(4-cyano-3-methoxyphenyl)cyclohexane-1-carboxamide] showed a pIC50 of 5.31.

In the case of `COc1ccc(NC(=O)[C@H]2CC[C@@H](n3c(=O)[nH]c4c(Br)cccc43)CC2)cc1C#N` [Example 161, (Cis)-4-(4-bromo-2-oxo-2,3-dihydro-1H-1,3-benzodiazol-1-yl)-N-(3-cyano-4-methoxyphenyl)cyclohexane-1-carboxamide], the pIC50 was 6.76.

Work on `O=c1[nH]c2c(Br)cccc2n1[C@H]1CC[C@@H](C(=O)Nc2ccc(F)c(Cl)c2)CC1` [Example 162, (Cis)-4-(4-bromo-2-oxo-2,3-dihydro-1H-1,3-benzodiazol-1-yl)-N-(3-chloro-4-fluorophenyl)cyclohexane-1-carboxamide] yielded a pIC50 of 5.89.

Compound `COc1cc(Cl)cc(NC(=O)[C@H]2CC[C@@H](n3c(=O)[nH]c4c(Br)cccc43)CC2)c1` [Example 163, (Cis)-4-(4-bromo-2-oxo-2,3-dihydro-1H-1,3-benzodiazol-1-yl)-N-(3-chloro-5-methoxyphenyl)cyclohexane-1-carboxamide] has a pIC50 of 5.50.

`COc1cccc(NC(=O)[C@H]2CC[C@@H](n3c(=O)[nH]c4c(Br)cccc43)CC2)c1` [Example 165, (Cis)-4-(4-bromo-2-oxo-2,3-dihydro-1H-1,3-benzodiazol-1-yl)-N-(3-methoxyphenyl)cyclohexane-1-carboxamide] gave a pIC50 of 5.86.

`Cc1cccc(NC(=O)[C@H]2CC[C@@H](n3c(=O)[nH]c4c(Br)cccc43)CC2)c1C` [Example 167, (Cis)-4-(4-bromo-2-oxo-2,3-dihydro-1H-1,3-benzodiazol-1-yl)-N-(2,3-dimethylphenyl)cyclohexane-1-carboxamide] was tested, and the pIC50 was 5.41.

With `Cc1cc(NC(=O)[C@H]2CC[C@@H](n3c(=O)[nH]c4c(Br)cccc43)CC2)no1` [Example 169, (Cis)-4-(4-bromo-2-oxo-2,3-dihydro-1H-1,3-benzodiazol-1-yl)-N-(5-methyl-1,2-oxazol-3-yl)cyclohexane-1-carboxamide] the pIC50 was 5.04.

In the case of `Cn1cc(NC(=O)[C@H]2CC[C@@H](n3c(=O)[nH]c4c(Br)cccc43)CC2)cn1` [Example 170, (Cis)-4-(4-bromo-2-oxo-2,3-dihydro-1H-1,3-benzodiazol-1-yl)-N-(1-methyl-1H-pyrazol-4-yl)cyclohexane-1-carboxamide], the pIC50 was 5.06.

With `COc1ccc2c(c1)[nH]c(=O)n2C1CCN(C(=O)Nc2ccc(OC)c(Cl)c2)CC1` [Example 172, N-(3-Chloro-4-methoxyphenyl)-4-(5-methoxy-2-oxo-2,3-dihydro-1H-1,3-benzodiazol-1-yl)piperidine-1-carboxamide] the pIC50 was 5.11.

From patent publication US11970474B2, “Substituted benzodiazoles and use thereof in therapy” (THOMAS HELLEDAYS STIFTELSE FÖR MEDICINSK FORSKNING, priority 2018, dated 2024)
